Source: paper PMC7992063 (ACS Omega, 2021)
Entries after “also recorded” stand apart in the source; their conditions may differ. Like-named read-outs stand apart in the source and are kept apart here.

How the values were obtained:
EBOV glycoprotein = conditions: cited from earlier work
[1] = test system: SARS-CoV-2 (Strain USA_WA1/2020); experiment: microbe, parasite or virus in culture; assay type: cell-based
Calu-3 cells = conditions: cited from earlier work
[2] = test system: SARS-CoV-2 (Strain USA_WA1/2020); experiment: microbe, parasite or virus in culture; assay type: cell-based; conditions: Severe acute respiratory syndrome coronavirus 2, Caco-2, 72 h
[3] = test system: SARS-CoV-2 (isolate USA WA1/2020); experiment: microbe, parasite or virus in culture; assay type: cell-based; conditions: for IC50: Severe acute respiratory syndrome coronavirus 2, Calu-3, read-out: IC50 (EC50), infection (dsRNA+ cells/total cell number)
HCoV 229E = assay type: cell-based, human coronavirus 229E
SARS-CoV-2 [4] = assay type: cell-based
in vitro [5] = conditions: African green monkey
rVSV-SARS-CoV-2 S = assay type: cell-based
Vero cells = conditions: cited from earlier work
[6] = test system: murine hepatitis virus (MHV); experiment: microbe, parasite or virus in culture; assay type: cell-based; conditions: Murine coronavirus
in vitro [7] = conditions: human
SARS-CoV-2-nLuc = experiment: microbe, parasite or virus in culture; assay type: cell-based; conditions: Severe acute respiratory syndrome coronavirus 2, A549-ACE2
[8] = biological target: SARS-CoV-2 spike receptor binding domain (RBD) (Severe acute respiratory syndrome coronavirus 2, UniProt P0DTC2)
Vero 76 cells = conditions: African green monkey
SARS-CoV-2 [9] = conditions: cited from earlier work
SARS-CoV-2 pseudovirus = conditions: mouse, in vivo; cited from earlier work
SARS-CoV-2 [10] = assay type: cell-based; conditions: 10 μM; 24 h
SARS-CoV-2 [11] = experiment: microbe, parasite or virus in culture; assay type: cell-based
SARS-CoV-2 [12] = conditions: cited from earlier work; remark: listed apart in the source
SARS-CoV-2 [13] = assay type: cell-based; remark: listed apart in the source
lysosomal pH = conditions: read-out: IC50, lysosomotropic; cited from earlier work
spike RBD = conditions: read-out: affinity for spike RBD; cited from earlier work
[14] = Severe acute respiratory syndrome coronavirus 2, Vero 76

Compound | Kd (EBOV glycoprotein) | EC50 [1] | activity against SARS-CoV-2 in Vero 76 [1] | EC50 [1, 14] | EC90 [2] | activity against SARS-CoV-2 in Calu-3 [3] | decrease of virus titer (HCoV 229E) | activity against SARS-CoV-2 in Vero E6 (SARS-CoV-2 [4]) | CC50 (in vitro [5]) | activity in VSV-pseudotype neutralization assay (rVSV-SARS-CoV-2 S) | neutralization (rVSV-SARS-CoV-2 S) | IC50 [6] | CC50 (in vitro [7]) | IC50 (SARS-CoV-2-nLuc) | weaker affinity for spike RBD compared to ACE2 [8] | CC50 (Vero 76 cells) | IC50 [3] | further results
COc1ccc2nc3cc(Cl)ccc3c(Nc3cc(CN4CCCC4)c(O)c(CN4CCCC4)c3)c2n1 [pyronaridine, 4-[(7-chloro-2-methoxybenzo[b][1,5]naphthyridin-10-yl)amino]-2,6-bis(1-pyrrolidinylmethyl)phenol phosphate (1:4)] | 7.34 µM | > 3.85 µM | no activity | > 3.52 µM | 5.49 µM | no activity | 2.83 logTCID50/mL | no activity; also recorded: no inhibition | 3.52 µM | no measurable activity | < 50% | 2.75 µM | 51.6 µM | 0.198 µM | 20–40 times | 3.85 µM |  | CC50 (Calu-3 cells): 43.1 µM; CC50 (Vero cells): 37.1 µM
CCN(CC)CCCC(C)Nc1c2ccc(Cl)cc2nc2ccc(OC)cc12 (stereo not shown) [quinacrine] | 7.55 µM | > 6.87 µM | no in vitro activity | > 7.33 µM | 10.5 µM | no in vitro activity | 3.9 logTCID50/mL | no in vitro activity; also recorded: no inhibition | 7.33 µM |  |  | 2.3 µM | 229 µM | < 0.2 µM |  | 6.87 µM |  | EC50 (SARS-CoV-2 [9]): 2.83 µM; binding to spike RBD [8]: did not demonstrate reproducible binding; infected cells (SARS-CoV-2 pseudovirus): significant decrease
CCC(CC)COC(=O)[C@H](C)N[P@](=O)(OC[C@H]1O[C@@](C#N)(c2ccc3c(N)ncnn23)[C@H](O)[C@@H]1O)Oc1ccccc1 [remdesivir] |  |  |  |  |  |  |  |  |  |  |  |  |  |  |  |  | 0.016 µM | inhibition of SARS-CoV-2, cell-associated viral RNA levels (SARS-CoV-2 [10]): ~50%; inhibition at 0.6 µM (SARS-CoV-2 [11]; Severe acute respiratory syndrome coronavirus 2, Calu-3, read-out: inhibition PFU/mL): ~100%
CCN(CC)CCOc1ccc2c(c1)C(=O)c1cc(OCCN(CC)CC)ccc1-2 [tilorone] | 0.73 µM |  |  | 6.62 µM | 29 µM |  |  | no inhibition | 49.6 µM | no measurable activity | < 50% | ~20 µM | 111 µM | 0.18 µM | 20–40 times |  | 10.8 µM | IC50 (SARS-CoV-2 [12]): 4 µM; IC50 (SARS-CoV-2 [11]; Severe acute respiratory syndrome coronavirus 2, Calu-3, 48 h): ~9 µM; inhibition of HCoV-229E (HCoV 229E): did not show significant inhibition; antiviral activity (SARS-CoV-2 [13]): did not show antiviral activity; IC50 (lysosomal pH): ~4 µM
ACE2 |  |  |  |  |  |  |  |  |  |  |  |  |  |  |  |  |  | Kd (spike RBD): ~0.015 µM
